Assay results published in PubChem BioAssay (NCI).
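48-hour exposure; five concentrations; linearly interpolated endpoints. GI50 marks 50% less growth. TGI: total growth inhibition.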

Key:
Test in all cases: DTP human tumour cell line panel, 48 h
786-0 renal = test system: 786-0 renal
A498 renal = test system: A498 renal
A549 NSCLC = test system: A549 NSCLC
ACHN renal = test system: ACHN renal
BT-549 breast = test system: BT-549 breast
CAKI-1 renal = test system: CAKI-1 renal
CCRF-CEM leukemia = test system: CCRF-CEM leukemia
COLO 205 colon = test system: COLO 205 colon
DU-145 prostate = test system: DU-145 prostate
HCC-2998 colon = test system: HCC-2998 colon
HCT-116 colon = test system: HCT-116 colon
HCT-15 colon = test system: HCT-15 colon
HL-60(TB) leukemia = test system: HL-60(TB) leukemia
HOP-62 NSCLC = test system: HOP-62 NSCLC
HOP-92 NSCLC = test system: HOP-92 NSCLC
HS 578T breast = test system: HS 578T breast
HT29 colon = test system: HT29 colon
IGROV1 ovarian = test system: IGROV1 ovarian
K-562 leukemia = test system: K-562 leukemia
KM12 colon = test system: KM12 colon
LOX IMVI melanoma = test system: LOX IMVI melanoma
M14 melanoma = test system: M14 melanoma
MALME-3M melanoma = test system: MALME-3M melanoma
MCF7 breast = test system: MCF7 breast
MDA-MB-231 breast = test system: MDA-MB-231 breast
MDA-MB-435 = test system: MDA-MB-435
MOLT-4 leukemia = test system: MOLT-4 leukemia
NCI-H226 lung = test system: NCI-H226 lung
NCI-H23 lung = test system: NCI-H23 lung
NCI-H460 lung = test system: NCI-H460 lung
NCI-H522 lung = test system: NCI-H522 lung
NCI/ADR-RES ovarian = test system: NCI/ADR-RES ovarian
OVCAR-3 ovarian = test system: OVCAR-3 ovarian
OVCAR-4 ovarian = test system: OVCAR-4 ovarian
OVCAR-5 ovarian = test system: OVCAR-5 ovarian
OVCAR-8 ovarian = test system: OVCAR-8 ovarian
PC-3 prostate = test system: PC-3 prostate
RPMI-8226 leukemia = test system: RPMI-8226 leukemia
RXF 393 renal = test system: RXF 393 renal
SF-268 CNS = test system: SF-268 CNS
SF-295 CNS = test system: SF-295 CNS
SF-539 CNS = test system: SF-539 CNS
SK-MEL-2 melanoma = test system: SK-MEL-2 melanoma
SK-MEL-28 melanoma = test system: SK-MEL-28 melanoma
SK-MEL-5 melanoma = test system: SK-MEL-5 melanoma
SK-OV-3 ovarian = test system: SK-OV-3 ovarian
SN12C renal = test system: SN12C renal
SNB-19 CNS = test system: SNB-19 CNS
SNB-75 CNS = test system: SNB-75 CNS
SR leukemia = test system: SR leukemia
SW-620 colon = test system: SW-620 colon
T-47D breast = test system: T-47D breast
TK-10 renal = test system: TK-10 renal
U251 CNS = test system: U251 CNS
UACC-257 melanoma = test system: UACC-257 melanoma
UACC-62 melanoma = test system: UACC-62 melanoma
UO-31 renal = test system: UO-31 renal

CCCCC(=O)N(c1ccc(Nc2c3ccccc3nc3cc([N+](=O)[O-])ccc23)cc1)S(C)(=O)=O
GI50 (786-0 renal): 4.3 µM | TGI (786-0 renal): > 100 µM | GI50 (A498 renal): 1.71 µM | TGI (A498 renal): 13.1 µM | GI50 (A549 NSCLC): 1.99 µM | TGI (A549 NSCLC): 62.2 µM | GI50 (ACHN renal): 3.85 µM | TGI (ACHN renal): > 88.7 µM | GI50 (BT-549 breast): 18.4 µM | TGI (BT-549 breast): 80.6 µM | GI50 (CAKI-1 renal): 7.03 µM | TGI (CAKI-1 renal): > 51.9 µM | GI50 (CCRF-CEM leukemia): 3.65 µM | TGI (CCRF-CEM leukemia): > 100 µM | GI50 (COLO 205 colon): 12.7 µM | TGI (COLO 205 colon): 36 µM | GI50 (DU-145 prostate): 1.67 µM | TGI (DU-145 prostate): 74 µM | GI50 (HCC-2998 colon): 14.1 µM | TGI (HCC-2998 colon): 30 µM | GI50 (HCT-116 colon): 3.78 µM | TGI (HCT-116 colon): 19.8 µM | GI50 (HCT-15 colon): 4.45 µM | TGI (HCT-15 colon): 29 µM | GI50 (HL-60(TB) leukemia): 12.9 µM | TGI (HL-60(TB) leukemia): > 69.7 µM | GI50 (HOP-62 NSCLC): 4.52 µM | TGI (HOP-62 NSCLC): 52.5 µM | GI50 (HOP-92 NSCLC): 3.57 µM | TGI (HOP-92 NSCLC): 21.5 µM | GI50 (HS 578T breast): 6.15 µM | TGI (HS 578T breast): 48.3 µM | GI50 (HT29 colon): 13.6 µM | TGI (HT29 colon): 60.3 µM | GI50 (IGROV1 ovarian): 6.86 µM | TGI (IGROV1 ovarian): > 45.8 µM | GI50 (K-562 leukemia): 5.16 µM | TGI (K-562 leukemia): > 47.4 µM | GI50 (KM12 colon): 2.63 µM | TGI (KM12 colon): 19.3 µM | GI50 (LOX IMVI melanoma): 3.05 µM | TGI (LOX IMVI melanoma): 17.4 µM | GI50 (M14 melanoma): 11 µM | TGI (M14 melanoma): 33.6 µM | GI50 (MALME-3M melanoma): 14.3 µM | TGI (MALME-3M melanoma): 34.8 µM | GI50 (MCF7 breast): 0.293 µM | TGI (MCF7 breast): 9.83 µM | GI50 (MDA-MB-231 breast): 12.8 µM | TGI (MDA-MB-231 breast): 49.5 µM | GI50 (MDA-MB-435): 18.2 µM | TGI (MDA-MB-435): > 93.1 µM | GI50 (MOLT-4 leukemia): 3.53 µM | TGI (MOLT-4 leukemia): 28.4 µM | GI50 (NCI-H226 lung): 8 µM | TGI (NCI-H226 lung): 32.9 µM | GI50 (NCI-H23 lung): 12.6 µM | TGI (NCI-H23 lung): 42.5 µM | GI50 (NCI-H460 lung): 0.381 µM | TGI (NCI-H460 lung): 12.8 µM | GI50 (NCI-H522 lung): 3.93 µM | TGI (NCI-H522 lung): 16 µM | GI50 (NCI/ADR-RES ovarian): 27 µM | TGI (NCI/ADR-RES ovarian): > 100 µM | GI50 (OVCAR-3 ovarian): 14.2 µM | TGI (OVCAR-3 ovarian): 66.6 µM | GI50 (OVCAR-4 ovarian): 11.1 µM | TGI (OVCAR-4 ovarian): 29.2 µM | GI50 (OVCAR-5 ovarian): 77.6 µM | TGI (OVCAR-5 ovarian): > 100 µM | GI50 (OVCAR-8 ovarian): 11 µM | TGI (OVCAR-8 ovarian): 78.8 µM | GI50 (PC-3 prostate): 3.64 µM | TGI (PC-3 prostate): 54.2 µM | GI50 (RPMI-8226 leukemia): 2.68 µM | TGI (RPMI-8226 leukemia): 14.3 µM | GI50 (RXF 393 renal): 8.44 µM | TGI (RXF 393 renal): 27.8 µM | GI50 (SF-268 CNS): 6.58 µM | TGI (SF-268 CNS): > 77.7 µM | GI50 (SF-295 CNS): 4.83 µM | TGI (SF-295 CNS): > 100 µM | GI50 (SF-539 CNS): 5.23 µM | TGI (SF-539 CNS): > 61.9 µM | GI50 (SK-MEL-2 melanoma): 23.3 µM | TGI (SK-MEL-2 melanoma): 62.9 µM | GI50 (SK-MEL-28 melanoma): 14.5 µM | TGI (SK-MEL-28 melanoma): 36.6 µM | GI50 (SK-MEL-5 melanoma): 4.25 µM | TGI (SK-MEL-5 melanoma): 18.3 µM | GI50 (SK-OV-3 ovarian): 27 µM | TGI (SK-OV-3 ovarian): > 100 µM | GI50 (SN12C renal): 4.86 µM | TGI (SN12C renal): > 100 µM | GI50 (SNB-19 CNS): 7.39 µM | TGI (SNB-19 CNS): > 100 µM | GI50 (SNB-75 CNS): 4.7 µM | TGI (SNB-75 CNS): 64.8 µM | GI50 (SR leukemia): 1.97 µM | TGI (SR leukemia): > 42.6 µM | GI50 (SW-620 colon): 5.73 µM | TGI (SW-620 colon): 31 µM | GI50 (T-47D breast): 0.588 µM | TGI (T-47D breast): 6.73 µM | GI50 (TK-10 renal): 7.61 µM | TGI (TK-10 renal): > 84 µM | GI50 (U251 CNS): 5.32 µM | TGI (U251 CNS): > 59.1 µM | GI50 (UACC-257 melanoma): 14.6 µM | TGI (UACC-257 melanoma): 62.5 µM | GI50 (UACC-62 melanoma): 7.12 µM | TGI (UACC-62 melanoma): 26.1 µM | GI50 (UO-31 renal): 3.61 µM | TGI (UO-31 renal): 45.3 µM
